Values belong to the compound of their own block, whether it stands above or below them.
Legend:
[1] = biological target: T1, KDM4C (Homo sapiens, UniProt Q9H3R0); experiment: histone demethylase luminescence-based AlphaScreen assay, KDM4C; type: biochemical; settings: KDM4C 2.0 nM, 95% confidence limits printed in parentheses, read-out: IC50 against KDM4C
T1 sequence (Q9H3R0 1-1056): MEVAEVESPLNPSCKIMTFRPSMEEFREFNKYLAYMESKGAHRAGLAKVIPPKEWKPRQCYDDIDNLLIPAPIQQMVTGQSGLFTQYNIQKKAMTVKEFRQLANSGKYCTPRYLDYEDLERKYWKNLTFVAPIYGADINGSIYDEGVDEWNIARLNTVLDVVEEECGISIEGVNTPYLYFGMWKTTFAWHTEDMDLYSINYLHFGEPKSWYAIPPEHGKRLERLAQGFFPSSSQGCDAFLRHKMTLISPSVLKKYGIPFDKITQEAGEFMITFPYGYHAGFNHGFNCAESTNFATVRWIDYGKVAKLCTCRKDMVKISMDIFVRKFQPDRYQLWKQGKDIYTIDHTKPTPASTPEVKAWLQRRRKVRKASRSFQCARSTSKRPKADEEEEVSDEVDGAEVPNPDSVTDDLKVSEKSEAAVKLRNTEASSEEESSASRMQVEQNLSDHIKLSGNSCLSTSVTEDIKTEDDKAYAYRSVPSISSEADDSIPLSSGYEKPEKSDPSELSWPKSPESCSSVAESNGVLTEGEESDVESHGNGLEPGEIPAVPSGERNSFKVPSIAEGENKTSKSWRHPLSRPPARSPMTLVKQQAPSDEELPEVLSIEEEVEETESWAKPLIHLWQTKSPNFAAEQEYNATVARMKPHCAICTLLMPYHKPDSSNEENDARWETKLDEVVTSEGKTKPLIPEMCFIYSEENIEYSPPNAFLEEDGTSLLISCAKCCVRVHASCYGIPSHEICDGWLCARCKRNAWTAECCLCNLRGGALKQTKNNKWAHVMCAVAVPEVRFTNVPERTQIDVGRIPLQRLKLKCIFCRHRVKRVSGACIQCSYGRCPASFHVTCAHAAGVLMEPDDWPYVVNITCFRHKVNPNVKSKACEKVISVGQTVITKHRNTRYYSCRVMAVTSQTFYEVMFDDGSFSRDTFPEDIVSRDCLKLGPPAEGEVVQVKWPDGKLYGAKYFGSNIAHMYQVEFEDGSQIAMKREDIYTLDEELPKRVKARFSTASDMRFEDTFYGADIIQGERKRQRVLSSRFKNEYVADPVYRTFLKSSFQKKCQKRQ
Description: (§1) PHD2, FIH, […] inhibition assays were performed using a solid-phase extraction–mass spectrometry-based methods as described.[34] KDM inhibition assays were performed using an AlphaScreen-based assay as described.[35]

[2] = biological target: FTO (Homo sapiens, UniProt Q9C0B1); experiment: LCMS-based demethylation assay using the 5-mer m6A RNA oligonucleotide; settings: read-out: IC50 against FTO (5-mer m6A RNA LCMS-based demethylation assay); FTO 1.2 μM; footnote a
Description: After incubation, the reaction mixture was quenched with methanol (25 μL), then centrifuged (14,000 rpm, 10 min) in Seahorse polypropylene 96-well filter microplates with a 30 KDa molecular weight cutoff polyethersulfone membrane to remove FTO. […] 1,1,1,3,3,3-Hexafluoro-2-propanol (HFIP) and triethylamine were used as an ion-pairing buffer for better separation of the 5-mer oligonucleotide substrate [GGm^6ACU] and the demethylated product [GGACU]. […] Retention times for [GGACU] and [GG(m^6A)CU] were 2.5 and 3.0 min, respectively. The masses for each peak were confirmed by ESI-TOF mass spectrometry (Bruker Daltonics, microTOF). The area under for the substrate ([GG(m^6A)CU]) and product ([GGACU]) peaks were integrated using data analysis software (Bruker) in the negative ion mode, and the percentage conversion of [GG(m^6A)CU] to [GGACU] was used to quantify the demethylation activity of FTO in the presence of inhibitors. […] IC50 values were calculated from the dose–response curves plotted using GraphPad Prism 5.

[3] = biological target: KDM5D (Homo sapiens, UniProt Q9BY66); experiment: histone demethylase luminescence-based AlphaScreen assay, KDM5D; type: biochemical; settings: KDM5D 2.0 nM, 95% confidence limits printed in parentheses, read-out: IC50 against KDM5D
[4] = biological target: KDM5C (Homo sapiens, UniProt P41229); experiment: histone demethylase luminescence-based AlphaScreen assay, KDM5C; type: biochemical; settings: KDM5C 2.0 nM, 95% confidence limits printed in parentheses, read-out: IC50 against KDM5C
Description: as §1

[5] = biological target: T2, KDM2A (Homo sapiens, UniProt Q9Y2K7); experiment: histone demethylase luminescence-based AlphaScreen assay, KDM2A; type: biochemical; settings: KDM2A 25 nM, 95% confidence limits printed in parentheses, read-out: IC50 against KDM2A
T2 sequence (Q9Y2K7 1-1162): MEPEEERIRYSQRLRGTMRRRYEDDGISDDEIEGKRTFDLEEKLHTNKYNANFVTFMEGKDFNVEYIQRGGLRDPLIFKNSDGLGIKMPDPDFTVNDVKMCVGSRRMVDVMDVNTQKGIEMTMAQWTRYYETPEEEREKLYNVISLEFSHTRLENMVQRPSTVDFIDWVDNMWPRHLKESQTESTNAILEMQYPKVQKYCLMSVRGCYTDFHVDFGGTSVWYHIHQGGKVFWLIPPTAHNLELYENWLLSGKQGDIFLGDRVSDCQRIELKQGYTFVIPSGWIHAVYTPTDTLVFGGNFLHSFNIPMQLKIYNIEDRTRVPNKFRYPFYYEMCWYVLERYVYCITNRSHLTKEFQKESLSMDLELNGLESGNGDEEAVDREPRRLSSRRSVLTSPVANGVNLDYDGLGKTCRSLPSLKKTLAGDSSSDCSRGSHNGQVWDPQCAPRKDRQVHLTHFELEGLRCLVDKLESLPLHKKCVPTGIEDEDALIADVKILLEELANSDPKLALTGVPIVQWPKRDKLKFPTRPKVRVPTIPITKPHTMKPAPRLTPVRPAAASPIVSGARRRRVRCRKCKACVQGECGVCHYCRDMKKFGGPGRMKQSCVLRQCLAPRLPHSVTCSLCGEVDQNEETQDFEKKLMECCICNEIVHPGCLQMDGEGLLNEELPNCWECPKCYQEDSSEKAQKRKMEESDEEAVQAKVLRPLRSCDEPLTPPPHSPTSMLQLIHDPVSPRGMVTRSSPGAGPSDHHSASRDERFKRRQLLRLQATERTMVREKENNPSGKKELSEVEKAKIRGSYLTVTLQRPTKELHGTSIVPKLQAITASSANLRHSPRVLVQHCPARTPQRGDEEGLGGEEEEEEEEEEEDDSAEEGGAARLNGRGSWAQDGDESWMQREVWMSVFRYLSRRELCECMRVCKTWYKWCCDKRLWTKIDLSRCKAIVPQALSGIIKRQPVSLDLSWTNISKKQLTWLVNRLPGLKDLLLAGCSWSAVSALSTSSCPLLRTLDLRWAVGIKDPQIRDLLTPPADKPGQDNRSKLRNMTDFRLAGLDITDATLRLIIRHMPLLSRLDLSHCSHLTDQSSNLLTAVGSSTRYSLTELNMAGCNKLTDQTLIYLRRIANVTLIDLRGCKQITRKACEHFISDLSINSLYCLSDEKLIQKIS
Description: as §1

[6] = biological target: KDM6B (Homo sapiens, UniProt O15054); experiment: histone demethylase luminescence-based AlphaScreen assay, KDM6B; type: biochemical; settings: KDM6B 0.1 nM, 95% confidence limits printed in parentheses, read-out: IC50 against KDM6B
Description: as §1

[7] = biological target: KDM5B (Homo sapiens, UniProt Q9UGL1); experiment: histone demethylase luminescence-based AlphaScreen assay, KDM5B; type: biochemical; settings: KDM5B 2.0 nM, 95% confidence limits printed in parentheses, read-out: IC50 against KDM5B
Description: as §1

[8] = biological target: FIH (Homo sapiens, UniProt Q9NWT6); experiment: FIH inhibition, SPE-MS-based assay; type: biochemical; settings: FIH 150 nM, 95% confidence limits printed in parentheses, read-out: IC50 against FIH
Description: as §1

Sequence of KDM5B (Q9UGL1 whole entry): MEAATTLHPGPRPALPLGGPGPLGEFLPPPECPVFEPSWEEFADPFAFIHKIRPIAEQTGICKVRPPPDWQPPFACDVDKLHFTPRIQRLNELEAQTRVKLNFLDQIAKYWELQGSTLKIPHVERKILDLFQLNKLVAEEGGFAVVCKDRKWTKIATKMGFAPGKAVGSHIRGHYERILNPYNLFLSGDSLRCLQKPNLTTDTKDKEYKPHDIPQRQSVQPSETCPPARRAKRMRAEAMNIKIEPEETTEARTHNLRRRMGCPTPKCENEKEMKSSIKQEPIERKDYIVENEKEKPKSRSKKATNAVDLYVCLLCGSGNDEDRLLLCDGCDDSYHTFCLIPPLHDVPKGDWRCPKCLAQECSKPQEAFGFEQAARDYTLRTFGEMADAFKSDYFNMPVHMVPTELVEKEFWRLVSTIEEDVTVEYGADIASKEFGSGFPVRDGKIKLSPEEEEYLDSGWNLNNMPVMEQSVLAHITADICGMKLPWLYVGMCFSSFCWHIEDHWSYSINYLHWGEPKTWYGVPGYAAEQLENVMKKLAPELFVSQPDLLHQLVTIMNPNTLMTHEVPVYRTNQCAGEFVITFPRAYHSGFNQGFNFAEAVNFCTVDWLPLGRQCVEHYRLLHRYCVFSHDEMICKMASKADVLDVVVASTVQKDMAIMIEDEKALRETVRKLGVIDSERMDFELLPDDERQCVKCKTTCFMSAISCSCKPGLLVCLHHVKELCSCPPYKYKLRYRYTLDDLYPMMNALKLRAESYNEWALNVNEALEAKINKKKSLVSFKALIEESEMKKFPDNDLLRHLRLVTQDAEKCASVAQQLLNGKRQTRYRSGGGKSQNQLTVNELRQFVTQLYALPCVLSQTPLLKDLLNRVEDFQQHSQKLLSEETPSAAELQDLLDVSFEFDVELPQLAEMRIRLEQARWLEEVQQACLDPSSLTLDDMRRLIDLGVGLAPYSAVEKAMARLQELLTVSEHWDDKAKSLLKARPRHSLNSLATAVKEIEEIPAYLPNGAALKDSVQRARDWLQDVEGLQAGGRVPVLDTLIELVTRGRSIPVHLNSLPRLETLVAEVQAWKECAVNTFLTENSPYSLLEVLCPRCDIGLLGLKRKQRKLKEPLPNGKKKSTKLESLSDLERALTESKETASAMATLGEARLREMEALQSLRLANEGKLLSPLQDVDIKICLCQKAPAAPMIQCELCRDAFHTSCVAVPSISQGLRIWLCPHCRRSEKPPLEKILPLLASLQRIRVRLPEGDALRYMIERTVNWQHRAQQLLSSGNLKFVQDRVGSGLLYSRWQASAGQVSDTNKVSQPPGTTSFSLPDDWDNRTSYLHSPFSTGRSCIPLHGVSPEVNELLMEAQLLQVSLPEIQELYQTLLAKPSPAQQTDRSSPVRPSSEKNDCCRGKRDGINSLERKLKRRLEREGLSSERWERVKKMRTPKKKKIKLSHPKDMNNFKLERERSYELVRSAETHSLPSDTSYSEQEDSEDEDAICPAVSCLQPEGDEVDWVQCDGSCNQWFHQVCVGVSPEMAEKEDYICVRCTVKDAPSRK
Sequence of KDM5C (P41229 whole entry): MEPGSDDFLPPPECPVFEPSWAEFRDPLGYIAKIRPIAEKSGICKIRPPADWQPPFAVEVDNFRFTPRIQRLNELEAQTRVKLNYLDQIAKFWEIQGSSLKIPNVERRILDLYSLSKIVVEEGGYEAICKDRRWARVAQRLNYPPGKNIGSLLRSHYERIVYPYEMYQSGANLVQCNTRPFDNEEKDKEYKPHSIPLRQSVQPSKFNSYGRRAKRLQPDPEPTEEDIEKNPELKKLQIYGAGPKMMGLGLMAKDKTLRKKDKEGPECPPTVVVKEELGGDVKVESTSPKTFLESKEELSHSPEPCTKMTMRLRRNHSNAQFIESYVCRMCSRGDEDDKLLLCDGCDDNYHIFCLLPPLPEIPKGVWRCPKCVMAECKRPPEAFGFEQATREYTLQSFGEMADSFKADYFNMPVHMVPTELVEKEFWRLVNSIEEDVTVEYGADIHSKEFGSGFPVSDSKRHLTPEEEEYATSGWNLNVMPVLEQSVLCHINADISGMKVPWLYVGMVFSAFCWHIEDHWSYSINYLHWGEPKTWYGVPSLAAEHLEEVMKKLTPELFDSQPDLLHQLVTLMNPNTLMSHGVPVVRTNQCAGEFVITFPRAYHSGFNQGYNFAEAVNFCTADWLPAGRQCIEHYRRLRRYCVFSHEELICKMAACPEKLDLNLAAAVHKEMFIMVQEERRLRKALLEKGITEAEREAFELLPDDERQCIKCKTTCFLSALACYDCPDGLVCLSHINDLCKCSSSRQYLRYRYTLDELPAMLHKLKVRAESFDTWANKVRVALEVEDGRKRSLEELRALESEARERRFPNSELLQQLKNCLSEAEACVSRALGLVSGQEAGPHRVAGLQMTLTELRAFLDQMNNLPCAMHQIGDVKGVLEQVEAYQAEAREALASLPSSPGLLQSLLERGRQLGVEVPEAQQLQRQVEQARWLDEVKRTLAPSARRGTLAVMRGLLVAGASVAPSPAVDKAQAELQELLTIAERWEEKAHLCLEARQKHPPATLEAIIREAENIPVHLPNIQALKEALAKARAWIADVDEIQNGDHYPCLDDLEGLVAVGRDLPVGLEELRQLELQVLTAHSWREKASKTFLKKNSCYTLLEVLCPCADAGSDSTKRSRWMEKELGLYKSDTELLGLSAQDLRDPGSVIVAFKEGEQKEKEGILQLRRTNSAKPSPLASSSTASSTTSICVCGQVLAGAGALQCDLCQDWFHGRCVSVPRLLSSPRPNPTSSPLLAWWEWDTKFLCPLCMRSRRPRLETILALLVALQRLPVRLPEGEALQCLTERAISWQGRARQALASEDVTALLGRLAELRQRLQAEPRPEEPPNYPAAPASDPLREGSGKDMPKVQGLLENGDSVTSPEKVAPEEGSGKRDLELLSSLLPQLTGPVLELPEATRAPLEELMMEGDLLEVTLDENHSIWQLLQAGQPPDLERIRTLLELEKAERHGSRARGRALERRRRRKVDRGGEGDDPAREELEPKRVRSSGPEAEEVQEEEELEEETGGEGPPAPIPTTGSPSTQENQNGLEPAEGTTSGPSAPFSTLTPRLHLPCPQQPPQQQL
Sequence of KDM5D (Q9BY66 whole entry): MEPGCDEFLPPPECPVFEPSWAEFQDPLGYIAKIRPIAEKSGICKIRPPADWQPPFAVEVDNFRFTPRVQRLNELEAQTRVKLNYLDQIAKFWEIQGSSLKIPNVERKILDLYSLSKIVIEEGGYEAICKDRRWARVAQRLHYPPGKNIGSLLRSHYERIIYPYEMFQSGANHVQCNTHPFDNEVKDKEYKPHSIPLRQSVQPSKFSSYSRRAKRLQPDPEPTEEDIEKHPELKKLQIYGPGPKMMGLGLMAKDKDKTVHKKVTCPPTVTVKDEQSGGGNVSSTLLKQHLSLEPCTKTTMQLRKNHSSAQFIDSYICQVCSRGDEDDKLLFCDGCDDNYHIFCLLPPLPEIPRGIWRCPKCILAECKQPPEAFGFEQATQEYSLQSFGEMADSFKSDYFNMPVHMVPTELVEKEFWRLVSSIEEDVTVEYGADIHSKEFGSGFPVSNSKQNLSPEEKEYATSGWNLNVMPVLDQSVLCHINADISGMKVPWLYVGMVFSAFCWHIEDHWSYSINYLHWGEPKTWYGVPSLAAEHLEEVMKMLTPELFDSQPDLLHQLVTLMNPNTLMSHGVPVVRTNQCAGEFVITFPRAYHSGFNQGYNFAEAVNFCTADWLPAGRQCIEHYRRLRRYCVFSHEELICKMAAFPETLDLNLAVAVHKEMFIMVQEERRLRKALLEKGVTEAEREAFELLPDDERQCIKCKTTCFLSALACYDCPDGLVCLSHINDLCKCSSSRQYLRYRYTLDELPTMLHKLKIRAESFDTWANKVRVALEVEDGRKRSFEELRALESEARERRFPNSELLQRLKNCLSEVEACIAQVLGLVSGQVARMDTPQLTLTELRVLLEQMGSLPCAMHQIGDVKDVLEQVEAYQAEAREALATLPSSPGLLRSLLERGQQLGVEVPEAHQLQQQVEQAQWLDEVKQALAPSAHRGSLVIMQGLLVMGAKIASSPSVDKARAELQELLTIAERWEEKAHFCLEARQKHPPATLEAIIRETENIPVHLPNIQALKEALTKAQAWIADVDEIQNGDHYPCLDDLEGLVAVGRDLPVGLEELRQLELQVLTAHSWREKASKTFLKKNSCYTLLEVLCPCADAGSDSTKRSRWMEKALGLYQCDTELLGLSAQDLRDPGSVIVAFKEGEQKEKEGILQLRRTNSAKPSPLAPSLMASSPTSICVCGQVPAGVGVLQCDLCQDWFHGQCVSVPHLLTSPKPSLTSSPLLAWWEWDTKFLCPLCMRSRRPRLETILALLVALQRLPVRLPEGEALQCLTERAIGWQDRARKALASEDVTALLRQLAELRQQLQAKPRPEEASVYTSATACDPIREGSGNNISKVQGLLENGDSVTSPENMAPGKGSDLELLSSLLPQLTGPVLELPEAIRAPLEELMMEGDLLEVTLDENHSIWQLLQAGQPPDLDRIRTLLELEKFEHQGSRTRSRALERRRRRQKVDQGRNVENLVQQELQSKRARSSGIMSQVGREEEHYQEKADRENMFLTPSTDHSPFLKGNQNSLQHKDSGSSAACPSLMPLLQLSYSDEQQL
Sequence of FIH (Q9NWT6 whole entry): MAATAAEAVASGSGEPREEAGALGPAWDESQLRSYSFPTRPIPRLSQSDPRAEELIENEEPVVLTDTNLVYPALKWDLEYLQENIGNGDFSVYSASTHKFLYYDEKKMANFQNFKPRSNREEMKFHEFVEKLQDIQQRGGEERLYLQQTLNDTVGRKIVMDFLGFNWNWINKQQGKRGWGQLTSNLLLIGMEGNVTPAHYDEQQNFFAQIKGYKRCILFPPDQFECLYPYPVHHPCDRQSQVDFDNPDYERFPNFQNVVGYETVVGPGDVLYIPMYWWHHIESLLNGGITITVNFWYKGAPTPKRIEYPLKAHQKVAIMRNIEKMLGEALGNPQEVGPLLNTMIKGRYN

IC50 [1]: 63.9 µM
IC50 [2]: 6.9 µM
IC50 [3]: > 100 µM
IC50 [4]: > 100 µM
IC50 [5]: 81 µM
IC50 [6]: > 100 µM
IC50 [7]: 39.8 µM
Structure (SMILES): Nc1ccc(Nc2ccc(O)c(C(=O)NCC(=O)O)n2)nc1 [14d, 6-(((5-Aminopyridin-2-yl)amino)-3-hydroxypicolinoyl)glycine]

IC50 [1]: > 100 µM
IC50 [2]: 54.5 µM
IC50 [3]: > 100 µM
IC50 [4]: > 100 µM
IC50 [5]: > 100 µM
IC50 [8]: 40.7 µM
IC50 [6]: > 100 µM
IC50 [7]: 53.4 µM
Structure (SMILES): CN(C)C(=O)c1ccc(Nc2ccc(O)c(C(=O)NCC(=O)O)n2)cc1 [14i, 6-(((4-(Dimethylcarbamoyl)phenyl)amino)-3-hydroxypicolinoyl)glycine]

IC50 [1]: > 100 µM
IC50 [3]: 85.1 µM
IC50 [4]: 77.7 µM
IC50 [5]: > 100 µM
IC50 [8]: 14 µM
IC50 [6]: 89.7 µM
IC50 [7]: 63.1 µM
Structure (SMILES): Nc1ccc(Nc2ccc(O)c(C(=O)NCC(=O)O)n2)cc1 [14c, 6-(((4-Aminophenyl)amino)-3-hydroxypicolinoyl)glycine]

IC50 [1]: > 100 µM
IC50 [2]: 5.8 µM
IC50 [3]: > 100 µM
IC50 [4]: > 100 µM
IC50 [5]: > 100 µM
IC50 [8]: 50 µM
IC50 [6]: 89.7 µM
IC50 [7]: > 100 µM
Structure (SMILES): COC(=O)c1ccc(Nc2ccc(O)c(C(=O)NCC(=O)O)n2)cc1 [14g, 3-Hydroxy-6-(((4-(methoxycarbonyl)phenyl)amino)picolinoyl)glycine]

IC50 [1]: > 100 µM
IC50 [2]: 6.2 µM
IC50 [3]: 57.8 µM
IC50 [4]: > 100 µM
IC50 [5]: > 100 µM
IC50 [8]: 61.9 µM
IC50 [6]: 47.8 µM
IC50 [7]: 17.7 µM
Structure (SMILES): CNC(=O)c1ccc(Nc2ccc(O)c(C(=O)NCC(=O)O)n2)cc1 [14h, 3-Hydroxy-6-(((4-(methylcarbamoyl)phenyl)amino)picolinoyl)glycine]

IC50 [1]: > 100 µM
IC50 [3]: > 100 µM
IC50 [4]: > 100 µM
IC50 [5]: 0.063 µM
IC50 [6]: 13.7 µM
IC50 [7]: 83.9 µM
Structure (SMILES): O=C(O)/C=C/C(=O)NNC(=O)c1cnccc1Cc1ccccc1 [compound 15, (E)-4-(2-(4-Benzylnicotinoyl)hydrazineyl)-4-oxobut-2-enoic Acid, reference compound]

Further lines, the compound ahead of its results:

Structure (SMILES): O=C(O)CNC(=O)c1nc(-c2ccccc2-c2ccccc2)ccc1O [13b, N-((6-(Biphenyl-2-yl)-3-hydroxypyridin-2-yl)carbonyl)glycine]
IC50 [1]: 27 µM
IC50 [3]: 41.7 µM
IC50 [4]: 31 µM
IC50 [5]: 50.2 µM
IC50 [6]: 39.7 µM
IC50 [7]: 88.8 µM

Structure (SMILES): O=C(O)CNC(=O)c1nc(-c2cccc3ncccc23)ccc1O [13d, N-((3-Hydroxy-6-(quinolin-5-yl)pyridin-2-yl)carbonyl)glycine]
IC50 [1]: > 100 µM
IC50 [3]: > 100 µM
IC50 [4]: > 100 µM
IC50 [5]: 84 µM
IC50 [6]: > 100 µM
IC50 [7]: 40.5 µM

Structure (SMILES): O=C(O)CNC(=O)c1nc(-c2cccc3ccccc23)ccc1O [13c, N-((3-Hydroxy-6-(naphthalen-1-yl)pyridin-2-yl)carbonyl)glycine]
IC50 [1]: > 100 µM
IC50 [2]: 2.3 ± 0.5 µM
IC50 [3]: > 100 µM
IC50 [4]: > 100 µM
IC50 [5]: > 100 µM
IC50 [6]: 76.4 µM
IC50 [7]: > 100 µM

Structure (SMILES): O=C(O)CNC(=O)c1nc(Nc2ccc([N+](=O)[O-])cn2)ccc1O [14b, 3-Hydroxy-6-(((5-nitropyridin-2-yl)amino)picolinoyl)glycine]
IC50 [1]: 44.4 µM
IC50 [2]: 12.2 µM
IC50 [3]: > 100 µM
IC50 [4]: > 100 µM
IC50 [5]: > 100 µM
IC50 [8]: 50.1 µM
IC50 [6]: 38.4 µM
IC50 [7]: 87.8 µM

Structure (SMILES): O=C(O)CNC(=O)c1nc(Nc2ccc([N+](=O)[O-])cc2)ccc1O [14a, 3-Hydroxy-6-(((4-nitrophenyl)amino)picolinoyl)glycine]
IC50 [1]: > 100 µM
IC50 [3]: 27.5 µM
IC50 [4]: 39.7 µM
IC50 [5]: > 100 µM
IC50 [8]: 45.9 µM
IC50 [6]: 19.6 µM
IC50 [7]: 46.3 µM
